In patent publication US20260217706A1, “HETEROCYCLIC COMPOUNDS, PREPARATION METHOD THEREFOR AND USE THEREOF” (GUANGZHOU YUFAN NANTU BIOTECHNOLOGIES CO., LTD, priority 2023, published 2026):

Target: CBL-B protein (Homo sapiens, UniProt Q13191)
Assay: CBL-B binding experiment (Streptavidin-Tb cryptate / Ligand L1 displacement)
Conditions: 8 nM CBL-B protein, 25° C., 60 minutes; Ki=Relative IC50/2
Experimental: The reaction system mainly includes 1× buffer, 20 mM HEPES pH 7.5, 150 mM NaCl, 0.01% Triton X-100, 0.5 mM TCEP, and 0.1% ug/ml BSA. The compound is continuously diluted with DMSO for 10 concentration points, and 150 nL is transferred to the experimental plate. The experimental reaction begins after adding 8 nM of CBL-B protein and the reaction is carried out at 25° C. for 60 minutes. […] After an additional 60 minutes of incubation at room temperature, the experimental plate is read using an EnVision plate. The luminescence signal values were converted to percentage inhibition rates. Inhibition %=(Sample value−Maximum value)/(Minimum value−Maximum value)×100. The minimum value refers to the measured value in the wells without CBL-B protein but with DMSO and Ligand, while the maximum value refers to the measured value in the wells with DMSO, CBL-B protein, and Ligand. The IC50 values are calculated by XLFit (version 5.3.1.3) in Excel. Equation: Y=Bottom+(Top−Bottom)/(1+(IC50/X)^HillSlope); Ki=Relative IC50/2.

Chain of CBL-B protein (Q13191 whole entry): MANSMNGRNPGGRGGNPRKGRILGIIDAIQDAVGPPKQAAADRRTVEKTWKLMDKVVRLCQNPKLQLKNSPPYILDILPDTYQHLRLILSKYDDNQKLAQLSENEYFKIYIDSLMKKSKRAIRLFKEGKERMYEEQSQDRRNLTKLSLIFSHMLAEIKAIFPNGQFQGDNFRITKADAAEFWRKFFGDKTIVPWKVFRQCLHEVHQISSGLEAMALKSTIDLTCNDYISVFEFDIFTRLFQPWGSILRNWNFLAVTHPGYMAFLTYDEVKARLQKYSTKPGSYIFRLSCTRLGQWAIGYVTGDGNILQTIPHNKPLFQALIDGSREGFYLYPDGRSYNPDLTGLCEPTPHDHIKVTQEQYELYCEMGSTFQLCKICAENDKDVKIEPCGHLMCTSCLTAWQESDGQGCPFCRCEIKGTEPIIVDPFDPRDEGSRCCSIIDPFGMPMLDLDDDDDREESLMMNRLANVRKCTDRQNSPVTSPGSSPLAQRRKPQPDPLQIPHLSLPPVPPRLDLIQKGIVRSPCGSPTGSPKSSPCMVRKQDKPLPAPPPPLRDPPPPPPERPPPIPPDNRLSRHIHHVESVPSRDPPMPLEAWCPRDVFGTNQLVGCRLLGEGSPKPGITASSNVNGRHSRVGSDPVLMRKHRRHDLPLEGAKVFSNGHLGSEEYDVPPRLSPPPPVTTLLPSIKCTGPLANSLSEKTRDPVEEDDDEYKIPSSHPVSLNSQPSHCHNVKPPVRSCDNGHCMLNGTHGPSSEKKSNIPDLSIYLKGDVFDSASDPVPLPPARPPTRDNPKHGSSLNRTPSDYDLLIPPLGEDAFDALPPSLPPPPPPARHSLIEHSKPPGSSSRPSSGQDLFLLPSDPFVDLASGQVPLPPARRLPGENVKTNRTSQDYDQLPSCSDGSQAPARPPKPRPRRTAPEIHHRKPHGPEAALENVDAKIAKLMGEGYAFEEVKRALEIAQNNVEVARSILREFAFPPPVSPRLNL

Cn1cnnc1C1(c2cccc(-n3cc(C(F)(F)F)c4cc(CN5CCC[C@@](C)(O)C5)[nH]c4c3=O)c2)CCC1 [Compound T065, 2-[[(3R)-3-hydroxy-3-methyl-1-piperidyl]methyl]-6-[3-[1-(4-methyl-1,2,4-triazol-3-yl)cyclobutyl]phenyl]-4-(trifluoromethyl)-1H-pyrrolo[2,3-c]pyridin-7-one]
Ki: < 50 nM

Cn1cnnc1C1(c2cccc(-n3cc(C(F)(F)F)c4cc(CN5CC[C@@H](O)[C@@H](F)C5)[nH]c4c3=O)c2)CCC1 [Compound T072, 2-(((3 S,4R)-3-fluoro-4-hydroxypiperidin-1-yl)methyl)-6-(3-(1-(4-methyl-4H-1,2,4-triazol-3-yl)cyclobutyl)phenyl)-4-(trifluoromethyl)-1,6-dihydro-7H-pyrrolo[2,3-c]pyridin-7-one]
Ki: < 50 nM

C[C@H]1CCCN(Cc2cc3c(C(F)(F)F)cn(-c4ccc([C@]5(c6nncn6C)C[C@@H](C)C5)s4)c(=O)c3[nH]2)C1 [Compound T073, 6-(5-((1r,3S)-3-methyl-1-(4-methyl-4H-1,2,4-triazol-3-yl)cyclobutyl)thiophen-2-yl)-2-(((S)-3-methylpiperidin-1-yl)methyl)-4-(trifluoromethyl)-1,6-dihydro-7H-pyrrolo[2,3-c]pyridin-7-one]
Ki: < 50 nM

C[C@H]1CCCN(Cc2cc3c(C(F)(F)F)cn(-c4ccc([C@]5(c6nncn6C)C[C@H](C)C5)s4)c(=O)c3[nH]2)C1 [Compound T074, 6-(5-((1s,3R)-3-methyl-1-(4-methyl-4H-1,2,4-triazol-3-yl)cyclobutyl)thiophen-2-yl)-2-(((S)-3-methylpiperidin-1-yl)methyl)-4-(trifluoromethyl)-1,6-dihydro-7H-pyrrolo[2,3-c]pyridin-7-one]
Ki: < 50 nM

Cn1cnnc1C1(c2cccc(-n3cc(C(F)(F)F)c4cc(CN5CCC(F)(F)CC5)[nH]c4c3=O)c2)CCC1 [Compound T075, 2-[(4,4-difluoro-1-piperidyl)methyl]-6-[3-[1-(4-methyl-1,2,4-triazol-3-yl)cyclobutyl]phenyl]-4-(trifluoromethyl)-1H-pyrrolo[2,3-c]pyridin-7-one]
Ki: < 50 nM

C[C@H]1CCCN(Cc2cc3c(C(F)(F)F)cn(-c4cccc(-c5ccccc5-c5nncn5C)c4)c(=O)c3[nH]2)C1 [Compound T076, 2-[[(3S)-3-methyl-1-piperidyl]methyl]-6-[3-[2-(4-methyl-1,2,4-triazol-3-yl)phenyl]phenyl]-4-(trifluoromethyl)-1H-pyrrolo[2,3-c]pyridin-7-one]
Ki: < 50 nM

C[C@@H]1CN(Cc2cc3c(C4CC4)cn(-c4cccc(C5(Cc6nncn6C)COC5)c4)c(=O)c3[nH]2)CCC1(F)F [Compound T078, (R)-4-cyclopropyl-2-((4,4-difluoro-3-methylpiperidin-1-yl)methyl)-6-(3-(3-((4-methyl-4H-1,2,4-triazol-3-yl)methyl)oxetan-3-yl)phenyl)-1,6-dihydro-7H-pyrrolo[2,3-c]pyridin-7-one]
Ki: < 50 nM

C[C@H]1CN(Cc2cc3c(C4CC4)cn(-c4cccc(C5(Cc6nncn6C)COC5)c4)c(=O)c3[nH]2)CCC1(F)F [Compound T079, (S)-4-cyclopropyl-2-((4,4-difluoro-3-methylpiperidin-1-yl)methyl)-6-(3-(3-((4-methyl-4H-1,2,4-triazol-3-yl)methyl)oxetan-3-yl)phenyl)-1,6-dihydro-7H-pyrrolo[2,3-c]pyridin-7-one]
Ki: < 50 nM

Cn1cnnc1C1(c2cccc(-n3cc(C(F)(F)F)c4cc(CN5CCC[C@H](CC#N)C5)[nH]c4c3=O)c2)CCC1 [Compound T081, (R)-2-(1-((6-(3-(1-(4-methyl-4H-1,2,4-triazol-3-yl)cyclobutyl)phenyl)-7-oxo-4-(trifluoromethyl)-6,7-dihydro-1H-pyrrolo[2,3-c]pyridin-2-yl)methyl)piperidin-3-yl)acetonitrile]
Ki: < 50 nM

C[C@H]1CCCN(Cc2cc3c(S(C)(=O)=O)cn(-c4cccc(C5(Cc6nncn6C)COC5)c4)c(=O)c3[nH]2)C1 [Compound T089, 2-[[(3S)-3-methyl-1-piperidyl]methyl]-4-methylsulfonyl-6-[3-[3-[(4-methyl-1,2,4-triazol-3-yl)methyl]oxetan-3-yl]phenyl]-1H-pyrrolo[2,3-c]pyridin-7-one]
Ki: < 50 nM

C[C@H]1CCCN(Cc2cc3c(Br)cn(-c4cccc(C5(Cc6nncn6C)COC5)c4)c(=O)c3[nH]2)C1 [Compound T090, (S)-4-bromo-6-(3-(3-((4-methyl-4H-1,2,4-triazol-3-yl)methyl)oxetan-3-yl)phenyl)-2-((3-methylpiperidin-1-yl)methyl)-1,6-dihydro-7H-pyrrolo[2,3-c]pyridin-7-one]
Ki: < 50 nM

CC(C)C1CN(C)CCN1Cc1cc2c(C3CC3)cn(-c3cccc([C@]4(c5nncn5C)C[C@@H](C)C4)c3)c(=O)c2[nH]1 (stereo partly shown) [Compound T094, 4-cyclopropyl-2-((2-isopropyl-4-methylpiperazin-1-yl)methyl)-6-(3-((1s,3s)-3-methyl-1-(4-methyl-4H-1,2,4-triazol-3-yl)cyclobutyl)phenyl)-1,6-dihydro-7H-pyrrolo[2,3-c]pyridin-7-one]
Ki: < 50 nM

CC(C)[C@@H]1CN(C)CCN1Cc1cc2c(C3CC3)cn(-c3cccc([C@]4(c5nncn5C)C[C@@H](C)C4)c3)c(=O)c2[nH]1 [Compound T095, 4-cyclopropyl-2-(((R)-2-isopropyl-4-methylpiperazin-1-yl)methyl)-6-(3-((1s,3S)-3-methyl-1-(4-methyl-4H-1,2,4-triazol-3-yl)cyclobutyl)phenyl)-1,6-dihydro-7H-pyrrolo[2,3-c]pyridin-7-one]
Ki: < 50 nM

CC(C)CN(Cc1cc2c(C(F)(F)F)cn(-c3cccc(C4(c5nncn5C)CCC4)c3)c(=O)c2[nH]1)CC(C)C [Compound T098, 2-[(diisobutylamino)methyl]-6-[3-[1-(4-methyl-1,2,4-triazol-3-yl)cyclobutyl]phenyl]-4-(trifluoromethyl)-1H-pyrrolo[2,3-c]pyridin-7-one]
Ki: < 50 nM

COCC1(NCc2cc3c(C(F)(F)F)cn(-c4cccc([C@]5(c6nncn6C)C[C@H](OC)C5)c4)c(=O)c3[nH]2)CC1 [Compound T099, 6-(3-((1r,3r)-3-methoxy-1-(4-methyl-4H-1,2,4-triazol-3-yl)cyclobutyl)phenyl)-2-(((1-(methoxymethyl)cyclopropyl)amino)methyl)-4-(trifluoromethyl)-1,6-dihydro-7H-pyrrolo[2,3-c]pyridin-7-one]
Ki: < 50 nM

COCC1(NCc2cc3c(C(F)(F)F)cn(-c4cccc([C@]5(c6nncn6C)C[C@@H](OC)C5)c4)c(=O)c3[nH]2)CC1 [Compound T100, 6-(3-((1s,3s)-3-methoxy-1-(4-methyl-4H-1,2,4-triazol-3-yl)cyclobutyl)phenyl)-2-(((1-(methoxymethyl)cyclopropyl)amino)methyl)-4-(trifluoromethyl)-1,6-dihydro-7H-pyrrolo[2,3-c]pyridin-7-one]
Ki: < 50 nM

C[C@H]1CCCN(Cc2cc3c(C(F)(F)F)cn(-c4cc(F)cc([C@]5(c6nncn6C)C[C@@H](C)C5)c4)c(=O)c3[nH]2)C1 [Compound T101, 6-(3-fluoro-5-((1s,3R)-3-methyl-1-(4-methyl-4H-1,2,4-triazol-3-yl)cyclobutyl)phenyl)-2-(((S)-3-methylpiperidin-1-yl)methyl)-4-(trifluoromethyl)-1,6-dihydro-7H-pyrrolo[2,3-c]pyridin-7-one]
Ki: < 50 nM

Cn1cnnc1C1(c2cccc(-n3cc(C(F)(F)F)c4cc(CN5CC6CC5CC6(F)F)[nH]c4c3=O)c2)CCC1 (stereo not shown) [Compound T105, 2-[(5,5-difluoro-2-azabicyclo[2.2.1]heptan-2-yl)methyl]-6-[3-[1-(4-methyl-1,2,4-triazol-3-yl)cyclobutyl]phenyl]-4-(trifluoromethyl)-1H-pyrrolo[2,3-c]pyridin-7-one]
Ki: < 50 nM

Cn1cnnc1C1(c2cccc(-n3cc(C(F)(F)F)c4cc(CN5CC(F)CC(CO)C5)[nH]c4c3=O)c2)CCC1 (stereo not shown) [Compound T106, 2-[[3-fluoro-5-(hydroxymethyl)-1-piperidyl]methyl]-6-[3-[1-(4-methyl-1,2,4-triazol-3-yl)cyclobutyl]phenyl]-4-(trifluoromethyl)-1H-pyrrolo[2,3-c]pyridin-7-one]
Ki: < 50 nM

CO[C@@H]1CCN(Cc2cc3c(C(F)(F)F)cn(-c4cccc(C5(c6nncn6C)CCC5)c4)c(=O)c3[nH]2)C[C@@H]1F [Compound T107, 2-(((3S,4R)-3-fluoro-4-methoxypiperidin-1-yl)methyl)-6-(3-(1-(4-methyl-4H-1,2,4-triazol-3-yl)cyclobutyl)phenyl)-4-(trifluoromethyl)-1,6-dihydro-7H-pyrrolo[2,3-c]pyridin-7-one]
Ki: < 50 nM

CO[C@H]1CCN(Cc2cc3c(C(F)(F)F)cn(-c4cccc(C5(c6nncn6C)CCC5)c4)c(=O)c3[nH]2)C[C@H]1F [Compound T108, 2-(((3R,4S)-3-fluoro-4-methoxypiperidin-1-yl)methyl)-6-(3-(1-(4-methyl-4H-1,2,4-triazol-3-yl)cyclobutyl)phenyl)-4-(trifluoromethyl)-1,6-dihydro-7H-pyrrolo[2,3-c]pyridin-7-one]
Ki: < 50 nM

C[C@H]1CN(Cc2cc3c(C(F)(F)F)cn(-c4cccc(C5(c6nncn6C)CCC5)c4)c(=O)c3[nH]2)CCC1(F)F [Compound T110, 2-[[(3S)-4,4-difluoro-3-methyl-1-piperidyl]methyl]-6-[3-[1-(4-methyl-1,2,4-triazol-3-yl)cyclobutyl]phenyl]-4-(trifluoromethyl)-1H-pyrrolo[2,3-c]pyridin-7-one]
Ki: < 50 nM
